Entries after “also recorded” stand apart in the source; their conditions may differ.
Assays:
[1] = system: human induced pluripotent stem cells (iPS); assay: Apoptosis-specific cell phenotype observed under microscope; format: cell-based
Experimental: Human induced pluripotent stem cells (iPS) derived from human aortic smooth muscle cells (HASMC) was subcultured in an ESC medium (DMEM/F/12 supplemented with a 20% KnockOutTM serum replacement, 0.1% gentamycin, 1% non-essential amino acids, 0.1% β-mercaptoethanol and 4 ng/ml bFGF) containing mouse embryonic fibroblasts (MEF) treated with mitomycin-C as supporting cells Lee, T. H., et al., (2010). Functional recapitulation of smooth muscle cells via induced pluripotent stem cells from human aortic smooth muscle cells. Circ Res 106, 120-128). For the pretreatment of quercetin and YM-155 of the present invention, iPS was cultured in a matrigel-coated 60 mm dish containing […]1 medium (29106, Stem Cell Technology) to induce them into smooth muscle cells (SMC). Human aortic smooth muscle cells (HASMC) and human induced pluripotent stem cells-derived differentiated cells, i.e., human induced pluripotent stem cells-derived smooth muscle cells (iPS-SMC) were cultured in an SMCM medium (ScienCell research laboratories, cat #1101) as described in the reference (Lee et al., 2010). In order to confirm the selective apoptosis of undifferentiated human induced pluripotent stem cells by quercetin, human induced pluripotent stem cells (iPS) derived from human aortic smooth muscle cells (HASMC), HASMC, smooth muscle cell no. 1 differentiated-derived from iPS (iPS-SMC-1), and smooth muscle cell no. […]

[2] = system: human induced pluripotent stem cells (iPS); assay: Immunoblotting of apoptosis marker proteins in cell lysate; format: cell-based; conditions: 50 μM quercetin, 24 hours
Text: The antibodies used in the immunoblotting assay and anti-PARP1 (SC-7150) and anti-β-actin (SC-47778) were purchased from Santa Cruz Biotech Inc. (CA, USA). Additionally, anti-caspase-9 (Cat#9502) and anti-cleaved caspase-3 (Cat#9661) purchased from Cell Signaling Technology (Danvers, Mass., USA). In order to confirm the selective apoptosis of undifferentiated human induced pluripotent stem cells by quercetin, human induced pluripotent stem cells (iPS) derived from human aortic smooth muscle cells (HASMC), HASMC, smooth muscle cell no. 1 differentiated-derived from iPS (iPS-SMC-1), and smooth muscle cell no.

HASMC and iPS-SMC3 = assay: α-SMA expression by immunofluorescence; format: cell-based, human; conditions: 50 μM quercetin, 24 hours
Experimental: Human aortic smooth muscle cells (HASMC) and human induced pluripotent stem cells-derived differentiated cells, i.e., human induced pluripotent stem cells-derived smooth muscle cells (iPS-SMC) were cultured in an SMCM medium (ScienCell research laboratories, cat #1101) as described in the reference (Lee et al., 2010). As the first antibody used in IFA was anti-α-smooth muscle actin (α-SMA) (Dako Inc, Carpinteria, Calif.). Images were obtained using Axioscope A1 microscope (Carl Zeiss) and analyzed.

iPS-SMC1 and iPS-SMC3 = assay: Measurement of intracellular calcium (Fura-2) after ATP or 75 mM K+; format: cell-based, human; conditions: 50 μM quercetin, 24 hours, then ATP or 75 mM potassium solution
Experimental: In order to confirm the functions of the differentiated cells which were completely differentiated into smooth muscle cells, an intracellular calcium reaction was used. As described in the reference article (Lee et al., 2006), intracellular or extracellular calcium transients were induced using pharmacological reagents, ATP or 75 mM K^+ solution, and the values were numerized in fluorescence using a calcium indicator Fura-2 (Molecular Probes, Eugene, Oreg.), and imaged.

[3] = system: mixed cell population of human induced pluripotent stem cells-smooth muscle cells; assay: Cleaved caspase-3 immunostaining in 1:1 mixed iPS / iPS-derived smooth muscle cell culture; format: cell-based; conditions: 50 μM quercetin, 24 hours; 1:1 mixture of iPS and iPS-derived SMC
Experimental: The scale bar denotes 100 μm. […] In order to confirm the functions of smooth muscle cells differentiated-derived from human induced pluripotent stem cells, the population, which was cultured by mixing human induced pluripotent stem cells and the smooth muscle cells differentiated-derived from the human induced pluripotent stem cells in a 1:1 ratio, was treated with 50 μM quercetin for 24 hours, and examined the cleavage type caspase-3 positive population in the population of SMA-positive population or SSEA-4-positive population.

[4] = system: undifferentiated induced pluripotent stem cells; assay: Selective cell death of undifferentiated induced pluripotent stem cells (summary statement); format: cell-based, human; conditions: treatment of induced pluripotent stem cells; differentiated cells not affected
Text: The present inventors have made intensive efforts to develop a method for obtaining pure differentiated cells from induced pluripotent stem cells, and in particular, a method for obtaining only the pure differentiated cells by removing the possibility of a tumor formation by the undifferentiated induced pluripotent stem cells causing teratoma formation.

Compound: O=c1c(O)c(-c2ccc(O)c(O)c2)oc2cc(O)cc(O)c12 [quercetin, 2-(3,4-dihydroxyphenyl)-3,5,7-trihydroxy-4H-chromen-4-one]
- apoptosis-specific phenotypic cell type ([1]; 50 μM quercetin, 24 hours, iPS vs HASMC, iPS-SMC-1, iPS-SMC-3): exhibited a distinct apoptosis-specific cell phenotype; also recorded: distinctive apoptosis-specific phenotypic cell type was discovered
- degree of apoptosis (apoptosis-specific phenotypic cell type) at various concentrations ([1]; various concentrations of quercetin (QC), iPS): concentration-dependent
- apoptosis marker proteins: cleavage of Parp-1, cleaved caspase-3 and caspase-9 [2]: exhibited the expression of Parp-1 cleavage (T type), cleavage types of caspase-3 and caspase-9
- expression of α-SMA (immunofluorescence) (HASMC and iPS-SMC3): the expression of α-SMA was confirmed
- intracellular calcium response (function as smooth muscle cells) (iPS-SMC1 and iPS-SMC3): confirmed the functions as smooth muscle cells
- cleavage type caspase-3 positive population in SSEA-4-positive vs SMA-positive population [3]: excellent cleavage type caspase-3 positive population within the SSEA-4 positive population
- selective killing of undifferentiated induced pluripotent stem cells [4]: only the undifferentiated induced pluripotent stem cells were effectively and selectively killed
